We go through one compound from patent US6890950B2, “Lapachone delivery systems, compositions and uses related thereto” (priority 2002, dated 2005).

“Also recorded” adds a separate entry of the source. Where two headings read alike, the source gives them in different places.

Data set [1] concerns LNCaP cells. The experiment in a line: survival / lethality of CaP cells. It counts as cell-based, human. The conditions noted are these: LNCaP (lack NQO1).
In data set [2] the test system is athymic nude mice. The experiment in a line: maximum tolerated dose in athymic nude mice. Type of data set: in vivo, mouse. As to the method:
MDA_MB-468 NQO1+ Tumor (468) cells were injected into the right and left flanks of 18-20 gm athymic nude mice and tumors of 20-50 mm^3 volume were allowed to grow in 20-30 days. When tumor volumes reached 20-30 mm^3 (at day 26), mice were then treated (by intraperitoneal injection) every other day with the indicated doses (in mg/kg) of β-lap (55-70 mg/kg were tested). The maximum tolerated dose of β-lap in athymic nude mice was determined to be […]). Ten (10) β-lap doses were given every other day, and data are shown for only one cycle of β-lap treatment. Multiple cycles of treatments are now being tested, as are various dose regimen and scheduling protocols.
β-lap bioavailability and antitumor activity. To show efficacy of β-lap in vivo, a systemic delivery system was developed for this water-insoluble drug. β-Lap complexes with β-hydroxypropyl-β-cyclodextrin (HP-β-CD) that dissolves the drug and makes it bioavailable. The toxicity of HP-β-CD.β-lap in 18-20 gm athymic nude mice was examined and the maximum tolerated dose (MTD) was ˜75 mg/kg. […] We tested the effects of β-lap administered i.p. in athymic nude mice bearing NQO1^+ MDA-MB-468 (468) human breast cancer xenografts.

Data set [3] deals with PC-3 cells. Nature of the data set: survival / lethality of CaP cells. It counts as cell-based, human. The conditions noted are these: PC-3, absence of IR.
Data set [4] concerns normal fresh or proliferating human PBMC. The conditions noted are these: cited from earlier work.
The test system of data set [5] is CC-10 tumor cell lines. Nature of the data set: lethality and apoptosis of NSCLC cells. Type of data set: cell-based, mouse. From the text: PARP cleavage to a 60 kDa fragment and specific p53 proteolysis are diagnostic for β-lap-induced μ-calpain-mediated apoptosis.
The test system of data set [6] is DU-145 cells. The experiment in a line: survival / lethality of CaP cells. Type of data set: cell-based, human.
Data set [7] has as its system NQO1-expressing LNCaP clone (LN-NQ Cl 1-4, 10). The experiment in a line: apoptosis in transfected LNCaP clones. It counts as cell-based, human. The following applies: 10 μM β-lap. From the text:
LNCaP cells were transfected with either pcDNA3 empty vector or pcDNA3 containing full-length NQO1 cDNA.

In data set [8] the test system is C57/blk6 mice. The following applies: cited from earlier work.
Data set [9] is described as follows: β-lap release from polymer millirods in PBS. It counts as physicochemical. The conditions noted are these: fabrication and controlled release.

Usually LD50 stands for the dose at which mortality reaches 50%. For `CC1(C)CCC2=C(O1)c1ccccc1C(=O)C2=O` [β-lap, β-Lapachone], the “sensitivity to β-lap” value is on record as “resistant” in [1]; “sensitive” in [3]; “extremely sensitive” in data set [5] (4 μM, 4 h); “sensitive” in data set [6] (DU-145, absence of IR). For the same compound, the “maximum tolerated dose (MTD)” value in data set [2] (18-20 gm athymic nude mice) is 80 mg/kg. In data set [2] (HP-β-CD complex MTD vs lipiodol LD50), the “greater bioavailability in vivo than in previous studies” value is reported as about 3 fold. Moreover, the cytotoxic effects entry in data set [4] is recorded as “No cytotoxic effects”. The lethality and apoptosis entry in data set [5] was “caused lethality and apoptosis”. Further, in data set [6] (DU-145, 4 μM β-lap), the lethality was over 95%. Moreover, the survival in data set [6] (DU-145, 4 μM β-lap with 50 μM dicoumarol) is recorded as over 95%. Also, in [7], the apoptosis was 80-90%. Also, the LD50 is reported as over 150 mg/kg in data set [8] (Cremophor as vehicle) and over 150 mg/kg in data set [8] (lipiodol, C57/blk6 mice). The “structural integrity of released β-lap (UV-Vis spectra)” value in [9] is recorded as “maintained; also recorded: maintains its structural integrity”.
